Measured values as given in patent US20020028809A1 (SUNTORY LIMITED, priority 1999, published 2002).
pEC50, pKi: −log10 of the molar value. Like-named read-outs stand apart in the source and are kept apart here.

Legend:
[1] = molecular target: T1, α1β1γδ subtype of nicotinic acetylcholine receptors (Rattus norvegicus, UniProt P18916+P25108+P25109+P25110); test: Binding assays at α1β1γδ subtype of nicotinic acetylcholine receptors ([3H]-α-bungarotoxin, rat muscle extract); conditions: for remaining activity at 100 µM / remaining activity at 1000 µM: read-out: control % of [3H]-α-Bgt binding
T1 construct: Native receptor, no construct: "Triton X100 (2% w/v) was added
T1 sequence (P25108 21-457): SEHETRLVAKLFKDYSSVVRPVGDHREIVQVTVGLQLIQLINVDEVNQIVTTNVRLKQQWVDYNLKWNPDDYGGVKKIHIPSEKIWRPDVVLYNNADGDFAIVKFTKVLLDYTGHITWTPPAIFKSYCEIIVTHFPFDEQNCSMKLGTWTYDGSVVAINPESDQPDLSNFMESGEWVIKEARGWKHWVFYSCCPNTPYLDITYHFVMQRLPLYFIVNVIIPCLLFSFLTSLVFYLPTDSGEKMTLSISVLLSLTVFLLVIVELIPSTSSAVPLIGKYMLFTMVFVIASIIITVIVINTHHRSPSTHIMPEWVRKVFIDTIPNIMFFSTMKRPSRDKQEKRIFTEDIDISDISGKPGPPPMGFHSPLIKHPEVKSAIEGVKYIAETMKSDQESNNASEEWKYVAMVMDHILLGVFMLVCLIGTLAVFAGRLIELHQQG
T1 sequence (P25110 22-517): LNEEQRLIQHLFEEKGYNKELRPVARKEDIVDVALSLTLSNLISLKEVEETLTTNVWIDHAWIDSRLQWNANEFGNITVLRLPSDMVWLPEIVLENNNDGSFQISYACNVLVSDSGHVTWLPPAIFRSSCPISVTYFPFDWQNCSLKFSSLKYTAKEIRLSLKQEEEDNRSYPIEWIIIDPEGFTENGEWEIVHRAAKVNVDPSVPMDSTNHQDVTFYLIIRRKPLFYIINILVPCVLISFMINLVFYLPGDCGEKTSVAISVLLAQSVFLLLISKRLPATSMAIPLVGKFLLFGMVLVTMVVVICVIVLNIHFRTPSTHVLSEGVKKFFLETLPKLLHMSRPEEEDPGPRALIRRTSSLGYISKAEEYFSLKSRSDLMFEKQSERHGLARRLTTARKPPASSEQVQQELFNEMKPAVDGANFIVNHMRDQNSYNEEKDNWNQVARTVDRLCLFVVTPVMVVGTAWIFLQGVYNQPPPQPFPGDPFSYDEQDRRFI
T1 sequence (P25109 24-501): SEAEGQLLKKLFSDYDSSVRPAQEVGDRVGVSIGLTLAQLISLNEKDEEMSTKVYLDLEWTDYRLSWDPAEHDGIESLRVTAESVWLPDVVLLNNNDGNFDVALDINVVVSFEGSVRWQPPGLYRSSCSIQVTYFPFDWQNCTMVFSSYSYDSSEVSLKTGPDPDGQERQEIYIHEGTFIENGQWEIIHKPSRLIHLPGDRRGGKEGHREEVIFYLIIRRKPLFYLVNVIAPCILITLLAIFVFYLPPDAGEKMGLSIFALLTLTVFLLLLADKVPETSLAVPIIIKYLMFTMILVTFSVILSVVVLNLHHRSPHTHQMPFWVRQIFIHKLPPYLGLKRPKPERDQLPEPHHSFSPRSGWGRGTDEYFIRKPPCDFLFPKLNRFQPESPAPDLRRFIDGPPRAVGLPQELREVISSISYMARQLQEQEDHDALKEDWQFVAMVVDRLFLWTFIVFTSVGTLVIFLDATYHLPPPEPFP
Text: (§1) Methods for evaluating binding capabilities of the compounds at nicotinic acetylcholine receptors are different by subtypes of receptors. Binding capabilities of the compounds at α4β2 nicotinic acetylcholine receptors are examined using rat brain membrane obtained from whole homogenized brain, and determining the inhibiting rate of the compounds against [^3H]-cytisine binding to said brain membrane. Furthermore, the binding capabilities of the compounds at α1β1γδ nicotinic acetylcholine receptors are examined using homogenized rat muscle, and determining the inhibiting rate of the compounds against [^3H]-α-bungarotoxin binding to said muscle homogenate.
Binding Assays at α1β1γδ Subtype of Nicotinic Acetylcholine Receptors
Affinity of the compounds of the present invention to α1βγδ subtype of nicotinic acetylcholine receptors was measured by the following method, which was modified method described by Garcha H. S., Thomas P., Spivak C.
(1) Preparation of Rat Skeletal Muscles Containing α1β1γδ Subtype of Nicotinic Acetylcholine Receptors
The substantially same animals described in the Biological Experiment 1 were used.
Isolation of α1β1γδ subtype of nicotinic acetylcholine receptors was performed as follow. That is, rat posterior skeletal muscles were isolated just after sacrificed by decapitation, washed with ice-cooled saline solution and then frozen at −80° C. with liquid nitrogen and stored till using. After thawing the frozen muscles, tissue was homogenized (40% w/v) with buffer solution [2.5 mM of sodium phosphate buffer (pH:7.2), 90 mM of NaCl, 2 mM of KCl, 1 mM of EDTA, 2 mM of benzamidine, 0.1 mM of benzethonium chloride, […], 0.01% of sodium azide] in Waring blender (Waring blender 34BL97; WARING PRODUCTS DIVISION DYNAMICS CORPORATION OF AMERICA) for 60 seconds. The homogenate were centrifuged under 20,000×G for 60 minutes at 4° C. The supernatant was separated and the resulting pellet was added to the same buffer (1.5 ml/g wet weight), and homogenized under the same conditions. Triton X100 (2% w/v) was added and the mixture was stirred for 3 hours at 4° C. The centrifugation at 100,000×G for 60 minutes at 4° C. yielded the rat muscle extract as supernatant. This was stored at 4° C. for up to 4 weeks, and used for binding assays at receptors.
(2) Experiments of α1β1γδSubtype of Nicotinic Acetylcholine Receptors Binding
Receptors binding experiments were performed as follow. That is, the extract of rat muscle containing 600-900 μg of protein was added to test tubes containing test compounds and incubated for 15 minutes at 37° C. Then, to this mixture was added 1 nM of [^3H]-α-bungarotoxin (α-Bgt) and further incubated for 2 hours. The samples were isolated by vacuum filtration onto Whatman GF/B filters, which were prerinsed with 0.5% polyethylenimine just prior to sample filtration, using Brandel multi manifold cell harvester. The filters were rapidly rinsed with washing solution (10 mM of KH2PO4, 150 mM of NaCl, pH 7.2, room temperature) (5×1 ml). The filters were counted in 3 ml of clearsol I (Nacalai Tesque Inc.). Determination of nonspecific binding was incubated in the presence of 1 μM α-Bgt.
In the receptor binding experiments, said buffer solution was added for adjusting the final concentration of BSA to be 0.05%.
Analyses of the experimental results were conducted by the same way as described in the Biological Experiment 1.

[2] = molecular target: T2, α4β2 subtype of nicotinic acetylcholine receptors (Rattus norvegicus, UniProt P09483+P12390); test: Binding assays at α4β2 subtype of nicotinic acetylcholine receptors ([3H]-cytisine, rat brain membrane)
T2 construct: examined using rat brain membrane obtained from whole homogenized brain; from tissue; host or cells: whole brain of Fischer-344 male rats, membrane pellet
T2 sequence (P09483 31-630): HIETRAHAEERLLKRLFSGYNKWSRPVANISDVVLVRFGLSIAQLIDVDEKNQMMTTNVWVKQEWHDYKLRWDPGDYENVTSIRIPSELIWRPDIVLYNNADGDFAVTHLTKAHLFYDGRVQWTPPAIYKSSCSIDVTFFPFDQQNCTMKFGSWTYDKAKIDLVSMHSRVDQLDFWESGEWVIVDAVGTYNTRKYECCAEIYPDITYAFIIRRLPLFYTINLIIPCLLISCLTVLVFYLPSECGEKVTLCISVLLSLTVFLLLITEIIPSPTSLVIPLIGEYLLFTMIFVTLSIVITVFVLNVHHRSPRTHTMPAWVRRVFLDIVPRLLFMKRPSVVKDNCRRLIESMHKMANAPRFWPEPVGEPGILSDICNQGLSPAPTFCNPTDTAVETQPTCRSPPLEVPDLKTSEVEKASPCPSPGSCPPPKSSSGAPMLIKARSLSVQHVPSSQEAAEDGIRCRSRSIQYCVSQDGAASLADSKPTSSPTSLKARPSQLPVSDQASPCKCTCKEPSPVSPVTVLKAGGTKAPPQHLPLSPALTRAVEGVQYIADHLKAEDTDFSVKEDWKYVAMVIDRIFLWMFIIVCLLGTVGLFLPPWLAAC
T2 sequence (P12390 25-500): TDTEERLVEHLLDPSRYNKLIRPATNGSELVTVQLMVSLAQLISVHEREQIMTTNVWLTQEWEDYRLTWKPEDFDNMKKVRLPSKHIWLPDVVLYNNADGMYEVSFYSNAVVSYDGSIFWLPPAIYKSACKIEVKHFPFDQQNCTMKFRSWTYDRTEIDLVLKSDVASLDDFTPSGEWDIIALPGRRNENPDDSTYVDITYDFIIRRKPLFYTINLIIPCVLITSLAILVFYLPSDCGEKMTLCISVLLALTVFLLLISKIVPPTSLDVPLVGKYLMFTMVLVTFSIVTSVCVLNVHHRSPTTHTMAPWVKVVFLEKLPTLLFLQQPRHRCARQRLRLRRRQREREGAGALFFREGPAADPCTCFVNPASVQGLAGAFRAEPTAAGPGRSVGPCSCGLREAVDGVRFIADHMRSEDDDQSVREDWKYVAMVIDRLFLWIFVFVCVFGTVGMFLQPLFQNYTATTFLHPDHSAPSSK
Text: as §1
Binding assays at α4β2 Subtype of Nicotinic Acetylcholine Receptors
(1) Preparation of Rat Brain Membrane Containing α4β2 Subtype of Nicotinic Acetylcholine Receptors
Rats were housed in the breeding cage controlled of the room temperature at 23±1° C., and the humidity of 55±5% for 1 to 4 weeks. Rats (3 to 4 rats per a cage) were housed with lights on for 12 hours daily (from 7:00 to 19:00), and allowed free access to food and water.
Preparation of rat brain membrane containing α4β2 subtype of nicotinic acetylcholine receptors was performed as follow. That is, rat brains were isolated just after sacrificed by decapitation, washed with ice-cooled saline solution and then frozen at −80° C. with liquid nitrogen and stored till using. After thawing the frozen brain, the brain was homogenized in 10 volumes of ice-cooled buffer solution (50 mM of Tris-HCl, 120 mM of NaCl, 5 mM of KCl, 1 mM of MgCl2, 2mM of CaCl2; pH 7.4; 4° C.) using homogenizer (HG30, Hitachi Kohki Ltd.) for 30 seconds, and the homogenate were centrifuged under 1,000×G for 10 minutes at 4° C. The resulting supernatant was separated and the pellet was homogenized again with half volume of aforementioned prior buffer solution and centrifuged under the same conditions. Combined supernatant was further centrifuged under 40,000×G for 20 minutes at 4° C. The pellet was suspended in buffer solution and used for binding assays at receptors.
(2) Experiments of α4β2 Subtype of Nicotinic Acetylcholine Receptors Binding
Suspensions of membrane pellets containing 400-600 μg of protein were added to test tubes containing test compounds and [^3H]-cytisine (2 nM) in a final volume of 200 μl and incubated for 75 minutes in ice-cooled bath. The samples were isolated by vacuum filtration onto Whatman GF/B filters, which were prerinsed with 0.5% polyethylenimine just prior to sample filtration, using Brandel multi manifold cell harvester. The filters were rapidly washed with buffer solution (3×1 ml). The filters were counted in 3 ml of clearsol I (Nacalai Tesque Inc.).
Analyses of the experimental results were conducted using the Accufit Competition Program (Beckman Ltd.).

[3] = molecular target: T3, human α4β2 subtype of nicotinic acetylcholine receptors (Homo sapiens, UniProt P17787+P43681); test: Agonist activities at human α4β2 subtype of nicotinic acetylcholine receptors expressed in Xenopus oocytes (membrane potential holding method); assay type: cell-based
T3 construct: expressed in transfected cells; host or cells: Xenopus laevis oocytes injected with 50 ng each of α4 and β2 cRNA (pSP64 polyA vector)
T3 sequence (P43681 29-627 limits assumed): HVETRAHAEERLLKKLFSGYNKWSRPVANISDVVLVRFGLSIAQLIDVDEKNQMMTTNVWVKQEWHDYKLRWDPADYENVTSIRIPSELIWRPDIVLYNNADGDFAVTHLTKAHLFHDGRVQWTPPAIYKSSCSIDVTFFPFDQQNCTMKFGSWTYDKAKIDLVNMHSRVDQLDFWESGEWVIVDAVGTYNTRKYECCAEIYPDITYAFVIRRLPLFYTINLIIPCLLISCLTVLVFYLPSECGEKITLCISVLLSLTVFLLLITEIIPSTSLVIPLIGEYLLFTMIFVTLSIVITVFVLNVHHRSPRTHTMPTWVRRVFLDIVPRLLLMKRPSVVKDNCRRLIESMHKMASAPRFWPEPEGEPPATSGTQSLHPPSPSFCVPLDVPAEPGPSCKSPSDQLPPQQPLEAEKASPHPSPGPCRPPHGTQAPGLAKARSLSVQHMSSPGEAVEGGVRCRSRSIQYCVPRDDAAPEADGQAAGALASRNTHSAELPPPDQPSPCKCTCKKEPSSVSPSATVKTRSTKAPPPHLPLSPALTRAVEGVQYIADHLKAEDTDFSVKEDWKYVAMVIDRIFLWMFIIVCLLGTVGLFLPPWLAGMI
T3 sequence (P17787 26-502): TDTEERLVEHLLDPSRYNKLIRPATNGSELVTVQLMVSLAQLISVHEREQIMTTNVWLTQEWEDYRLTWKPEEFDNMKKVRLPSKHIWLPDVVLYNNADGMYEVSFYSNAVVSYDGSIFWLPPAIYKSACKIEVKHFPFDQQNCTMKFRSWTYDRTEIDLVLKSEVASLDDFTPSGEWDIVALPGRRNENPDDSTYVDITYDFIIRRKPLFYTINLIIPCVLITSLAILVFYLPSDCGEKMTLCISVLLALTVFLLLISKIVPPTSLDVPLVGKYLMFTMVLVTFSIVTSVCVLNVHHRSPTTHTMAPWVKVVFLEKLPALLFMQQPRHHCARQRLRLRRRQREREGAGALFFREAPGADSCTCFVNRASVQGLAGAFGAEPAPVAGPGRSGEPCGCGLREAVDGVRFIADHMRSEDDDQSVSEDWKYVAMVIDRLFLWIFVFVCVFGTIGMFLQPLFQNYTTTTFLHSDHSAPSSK
Method: Agonist effect in human α4β2 subtype of nicotinic acetylcholine receptors are examined by using human nicotinic acetylcholine receptors prepared in oocytes of Xenopus laevis, which is injected with cRNA from the corresponding cloning cDNA of human α4 and β2 subunits of nicotinic acetylcholine receptors, and to measure the expression of electric response by adding the test compounds to perfusion solution by means of membrane potential holding method.
Agonist Activities at Human α4β2 Subtype of Nicotinic Acetylcholine Receptors
(1) Preparation of cRNA of Human α4β2 Subtype of Nicotinic Acetylcholine Receptors
Obtained hnACh-R α4 cDNA and hnACh-R β2 cDNA were inserted to the cRNA expression vector (pSP64 polyA) having SP6 RNA promoter to construct hnACh-R α4/pSP64 polyA and hnACh-R β2/pSP64 polyA, respectively. After cutting from expression vector by restriction enzyme (EcoRI), transcription was performed by affecting SP6 RNA polymerase in the presence of cap analogues to obtain hnACh-R α4 cRNA and hnACh-R β2 cRNA, respectively.
(2) Expression of Human α4β2 Subtype Nicotinic Acetylcholine Receptors in Xenopus oocytes
Oocytes were purchased from Kitanihonseibutsukyohzai Co., Ltd., which were already enucleated from Xenopus laevis, and used in this experiment.
The oocytes were treated with collagenase (Sigma type I; 1 mg/ml) in calcium-free modified Birth's solution (88 mM of NaCl, 1 mM of KCl, 2.4 mM of NaHCO3, 0.82 mM of MgSO4, 15 mM of HEPES, pH 7.6) under gently stirring at room temperature for 90 minutes, and washed out the enzyme from the tissue. Then, oocytes were separated from ovarian follicle by tweezers, and isolated oocytes were placed in antibiotics containing modified Birth's solution (88 mM of NaCl, 1 mM of KCl, 2.4 mM of NaHCO3, 0.82 mM of MgSO4, 15 mM of HEPES, pH 7.6, and 0.1 v/v% of mixture solution containing of penicillin and streptomycin for incubation; Sigma Co.). […] In oocytes, heterogeneous quintuple [(α4)2(β2)3] was composed by translation of injected cRNAs, and ion channel receptors were constructed on cell membrane.
(3) Agonist Activities at Human α4β2 Subtype of Nicotinic Acetylcholine Receptors
Recordings of response at human α4β2 subtype of nicotinic acetylcholine receptors by means of membrane potential holding method were performed as follow. […] Test compounds were added to the perfusion solution, and recorded the peak strength of induced inward current. In order to normalize the response of test compounds, the response with acetylcholine (Ach) were recorded before and after application of the test compounds. Generally in the oocytes just after isolated, the response of intrinsic muscarinic acetylcholine receptors, which is inward electric current caused by activation of calcium dependence chloride ion channels with increase of the intracellular calcium concentration by stimulation of receptors, is observed. […] Therefore, the responses observed in oocytes with injection of hnACh-R α4 cRNA and hnACh-R β2 cRNA, i.e., the inward current induced by the intracellular influx of sodium ion according to the stimulation of receptors, would be the freshly observed responses of human α4β2 subtype nicotinic acetylcholine receptors.

[4] = at 1 μM of test compound, rat brain membrane
[5] = at 10 μM of test compound, rat brain membrane

| Structure (SMILES) | pKi [1] | pKi [2] | remaining activity at 100 µM [1] [%] | remaining activity at 1000 µM [1] [%] | further results |
| --- | --- | --- | --- | --- | --- |
| Cc1ccc(Cn2ccnc2N)cn1 [Compound 56, 2-amino-i-(6-methyl-3-pyridyl)methylimidazole] | 3.26 | 6.78 | – | – | Emax at 100 µM ([3]; read-out: Agonist activity: control % by response at 100 μM of the test compound): 11% |
| N=C1OCCCN1Cc1ccc(Cl)nc1 [Compound 16, 3-(6-chloro-3-pyridyl)methyl-2-imino-3,4,5,6-tetrahydro-2H-1,3-oxazine] | – | 9.19 | 14 | -2 | pEC50 [3]: 5.82 |
| Cc1ccc(Cn2ccsc2=N)cc1 [Compound 63, 2-imino-3-(4-methylbenzyl)-2,3-dihydrothiazole] | 3.44 | – | – | – | pKi ([2]; rat brain membrane, [3H]-cytisine (2 nM), read-out: Affinities for receptors Ki α4β2): 6.80 |
| N=C1SCCN1Cc1cccnn1 [Compound 49, 2-imino-3-(3-pyridazinyl)methylthiazolidine] | – | – | 18 | 14 | control % of [3H]-cytisine binding [2, 4]: (62%,; control % of [3H]-cytisine binding [2, 5]: 16%) |
| Cc1ccc(=N)n(Cc2ccc(Cl)nc2)c1 [Compound 24, 1-(6-chloro-3-pyridyl)methyl-2-imino-5-methyl-1,2-dihydropyridine] | – | 7.31 | 80 | 36 | – |
| Cc1nc(N)n(Cc2ccc(Cl)nc2)c1C [Compound 51, 2-amino-1-(6-chloro-3-pyridyl)methyl-4,5-dimethylimidazole] | – | – | 103 | 53 | control % of [3H]-cytisine binding [2, 4]: (96%; control % of [3H]-cytisine binding [2, 5]: 33%) |
| Cc1csc(=N)n1Cc1ccc(F)nc1 [Compound 18, 3-(6-fluoro-3-pyridyl)methyl-2-imino-4-methyl-2,3-dihydrothiazole] | 5.24 | 7.97 | – | – | – |
| N=c1ncc(-c2ccccc2)cn1Cc1ccc(Cl)nc1 [Compound 46, 1-(6-chloro-3-pyridyl)methyl-2-imino-5-phenyl-1,2-dihydropyrimidine] | – | 6.56 | 88 | 66 | – |
| Cc1cn(Cc2ccc(Cl)nc2)c(=N)s1 [Compound 3, 3-(6-chloro-3-pyridyl)methyl-2-imino-5-methyl-2,3-dihydrothiazole] | – | 8.24 | 69 | 28 | – |
| N=c1ccc(-c2ccccc2)nn1Cc1cccnc1 [Compound 45, 3-imino-6-phenyl-2-(3-pyridyl)methyl-2,3-dihydropyridazine] | – | 6.84 | 18 | 6 | – |
| N=c1ccc(Cl)cn1Cc1ccc(Cl)nc1 [Compound 22, 5-chloro-1-(6-chloro-3-pyridyl)methyl-2-imino-1,2-dihydropyridine] | – | 7.47 | 75 | 28 | – |
| Cc1cccn(Cc2ccc(Cl)nc2)c1=N [Compound 23, 1-(6-chloro-3-pyridyl)methyl-2-imino-3-methyl-1,2-dihydropyridine] | – | 6.66 | 89 | 52 | – |
| Cc1sc(=N)n(Cc2ccc(Cl)nc2)c1C [Compound 20, 3-(6-chloro-3-pyridyl)methyl-2-imino-4,5-dimethyl-2,3-dihydrothiazole] | – | 8.12 | 96 | 45 | – |
| Nc1nccn1Cc1cncnc1 [Compound 52, 2-amino-1-(5-pyrimidyl)methylimidazole] | 3.52 | 7.60 | – | – | – |
| Cc1ccn(Cc2ccc(Cl)nc2)c(=N)c1 [Compound 25, 1-(6-chloro-3-pyridyl)methyl-2-imino-4-methyl-1,2-dihydropyridine] | – | 6.77 | 90 | 58 | – |
| Cc1csc(=N)n1Cc1ccc(Cl)nc1 [Compound 2, 3-(6-chloro-3-pyridyl)methyl-2-imino-4-methyl-2,3-dihydrothiazole] | 4.89 | 8.46 | – | – | – |
